Among the data in ChEMBL document CHEMBL1147869, “Computational approach to the basicity of a series of alpha1-adrenoceptor ligands in aqueous solution” (Bioorg Med Chem, 2007) are pKa values, retold here.

SMILES strings stand for the structures.

The data set in a line: Dissociation constant, pKa of the compound. Format: physicochemical.
Broadly, the pKa is the pH at which an ionisable group is half protonated. High values mean a weaker acid or stronger base, low ones a stronger acid or weaker base. `c1cc(Nc2ccc(NC3=NCCN3)cc2)ccc1NC1=NCCN1` came in with a pKa of 9.9.

Compound `N=C(N)Nc1ccc(Nc2ccc(NC(=N)N)cc2)cc1` yielded a pKa of 10.8.

In turn, `N=C(N)Nc1ccc(C(=O)c2ccc(NC(=N)N)cc2)cc1` had a pKa of 9.4.

`O=C(c1ccc(NC2=NCCN2)cc1)c1ccc(NC2=NCCN2)cc1` gave a pKa of 8.6.

With `c1cc(NC2=NCCN2)ccc1Cc1ccc(NC2=NCCN2)cc1`, the pKa was determined as 9.8.

Turning to `N=C(N)Nc1ccc(Cc2ccc(NC(=N)N)cc2)cc1`, the pKa worked out at 10.5.

On to `COc1cc2nc(N3CCN(C(=O)C4COc5ccccc5O4)CC3)nc(N)c2cc1OC` (centres undefined) [DOXAZOSIN], for which the pKa is 6.9.

`CNC[C@H](O)c1ccc(O)c(O)c1` [EPINEPHRINE] returned a pKa of 8.59.

Consider `NC[C@H](O)c1ccc(O)c(O)c1` [NOREPINEPHRINE], for which the pKa was found to be 8.58.
